Measured values reported in patent US20070111967A1, “Organosilicon compounds and their use” (priority 2003, published 2007).

melting point: 105 °C
SMILES: COc1cc(OC)c(NC(=O)c2ccc(Cc3cc4c(cc3C)[Si](C)(C)C[Si]4(C)C)o2)c(OC)c1
